Source: US20230277553A1, “THERAPEUTIC COMPOSITION OF CURE-PRO COMPOUNDS FOR TARGETED DEGRADATION OF BET DOMAIN PROTEINS, AND METHODS OF MAKING AND USAGE” (CORNELL UNIVERSITY, priority 2020, published 2023)
Entries after “also recorded” stand apart in the source; their conditions may differ.

What was measured:
Assay type in all cases: cell-based
BRD4 [1] = target: T1, BRD4 (Homo sapiens, UniProt O60885); assay: CURE-PRO-mediated BRD4 degradation with VHL ligands, Western blot, MCF7 cells; design: endogenous in cells; conditions: MCF7, 24 h, 1:1 with 8305, 100 nM-10 μM
Experimental: (§1) All cell lines were purchased from ATCC or DSMZ and grown at 37° C. with 5% CO2. Human HeLa cells were cultured in complete growth medium (Dulbecco's modified Eagle's medium (DMEM) supplemented with 10% FBS); MCF7 cells were cultured in complete growth medium (Dulbecco's modified Eagle's medium (DMEM) supplemented with 10% FBS and 0.01 mg/ml human recombinant insulin (Sigma Aldrich); Namalwa and MOLM-13 cells were cultured in complete growth medium (RPMI 1640 medium supplemented with 10% FBS); MV-4-11 were cultured in complete growth medium (Iscove's Modified Dulbecco's medium, supplemented with 10% FBS); HCT116 cells were cultured in complete growth medium (McCoy's 5a Medium supplemented with 10% FBS). For cellular degradation of BRD4 studies, cells were seeded in a 12-well plate at 70-80% confluency, allowed to attach overnight, and incubated with the indicated compounds for the indicated time. When indicated, a 15-minute pretreatment with 10 μM pomalidomide, 10 μM VHL298, 10 μM Nutlin3a, 1 μM MG-132 or 1 μM Carfilzomib was performed before the addition of CURE-PROs. For washout studies, after CURE-PRO treatment, media was aspirated and incubated with complete medium for the indicated time before lysis.
HeLa, MCF7, or HCT116 cells (2.5-3×10^6) were treated for 24 hours with the indicated compounds solubilized in DMSO. The cells were washed in ice-cold PBS and were then lysed in RIPA lysis buffer (150 mM NaCl, 5 mM EDTA, 1% NP-40, 0.5% sodium deoxycholate, 0.1% SDS, 50 mM Tris, pH 8.0.) with Roche protease inhibitor complete cocktail and phosphatase inhibitors (10 mM sodium fluoride, 10 mM sodium pyrophosphate, 1 mM sodium orthovanadate and 20 mM β-glycerophosphate). The total protein concentrations were determined by Bradford Protein Assay and 10-20 μg of protein was loaded onto 4-15% Tris-Glycine gradient gels (Biorad). After standard gel electrophoresis, the separated proteins were transferred to PVDF membrane by wet transfer. The immunoblots were then blocked for 1 hour in 5% skim milk in TBST or 5% BSA in TBST, according to manufacturer's instructions, before an overnight incubation at 4° C. with indicated antibodies and membranes. Membranes were then incubated with the appropriate horseradish peroxidase-conjugated secondary antibodies (1:5,000 dilution) for 1 h at room temperature and the bands were visualized using the Clarity Max Western ECL Substrate (Biorad) and the ChemiDoc Imaging System (Biorad). Signal was detected with ECL Western Blotting Substrate (Pierce) and X-ray film processed with a Konica SRX-101 X-ray film processor or captured by Bio-Rad's Chemidoc Imaging system.
MCF7 cells (3×10^6) were treated for 24 h with the compounds solubilized in DMSO. Compounds were added at 100 nM-10 μM. […]

caspase 3/7 = assay: Caspase-Glo 3/7 assay, Namalwa cells; conditions: 24 hours, 1:1 with 8047
Experimental: Caspase-glo® assay (Promega) was conducted following the manufacturer's recommendations. Cells were seeded at a density of 5000 cells/well in a white 96 well plates (Corning, #3917) in a total volume of 100 μl with respective monomers, combinations of BRD ligands together with E3 ligase ligands or vehicle control treatment. After a 24 h incubation, 100 μl of the […] substrate was added per well and luminescence was read on a Spectramax M5 (Molecular Devices).
Namalwa cells (5×104) were treated for 24 hours with the compounds solubilized in DMSO. FIG. 57 is a bar graph depiction of fold increase of apoptosis assessed via caspase 3/7 activity using the Caspase-glo assay (Promega) described above.
Molm-13 (FIG. 76A) or Namalwa (FIG. 76B) cells (5×10^4) were treated for 24 hours with the compounds solubilized in DMSO in white 96 well plates (10 nM-10 μM solubilized in DMSO). FIG. 76 is a bar graph depiction of fold increase of apoptosis assessed via caspase 3/7 activity using the Caspase-glo assay (Promega) described above.

BRD4 [2] = target: T1, BRD4; assay: Summary of BRD4 degradation by CURE-PRO pairs, estimated from Western Blot or WES (Proteinsimple); design: endogenous in cells; conditions: Table 1, CRBN ligand
Source text: A black check mark indicates efficacy of 30% to 70% or higher protein degradation.

BRD4 [3] = target: T1, BRD4; assay: CURE-PRO-mediated BRD4 degradation, Western blot, HeLa cells; design: endogenous in cells; host or cells: HeLa; conditions: 24 h
How it was run: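 HeLa cells treated 24 h with compounds in DMSO (1-10 μM, 10 μM or 100 μM each; paired monomers combined 1:1), optional 15-min pretreatment with pomalidomide, VHL298, Nutlin3a (10 μM) or MG-132/carfilzomib (1 μM). RIPA lysates, 10-20 μg protein immunoblotted for BRD4 with β-actin, ECL detection.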

BRD4 [4] = target: T1, BRD4; assay: CURE-PRO-mediated BRD4 degradation, WES (ProteinSimple), HeLa cells; design: endogenous in cells; host or cells: HeLa
Experimental: as §1
Anti-BRD4 (13440, 1:1,000 dilution for Western Blot and 1:25 dilution for ProteinSimple); Anti-BRD2 (5848 1:1,000 dilution for Western Blot and 1:25 dilution for ProteinSimple); β-Actin (3700, 1:2,000 dilution for Western Blot), β-Actin (4970, 1:50 dilution for ProteinSimple) anti-mouse IgG-HRP, and anti-rabbit IgG-HRP antibodies were purchased Cell Signaling Technology. Anti-GAPDH (600-401-A33, 1:100 dilution for ProteinSimple) was purchased from Rockland Immunochemicals, Inc. Anti-BRD3 (sc-81202, 1:200 dilution for Western Blot) was purchased from Santa Cruz Biotechnology.
WES Simple analysis was performed on WES system (ProteinSimple-Biotechne) according to the manufacturer's instructions. Total protein concentrations of cell lysates were determined by the Pierce BCA kit (Thermo Fisher). 3 μL of 0.3 μg/μL of the protein lysate was loaded onto a 12- to 230-kDa WES assay plate (ProteinSimple) where 300 nL sample was withdrawn through a capillary, subjected to electrophoretic separation of proteins by size, and followed by the simultaneous, HRP-based detection of proteins using the Anti-Rabbit Detection Module (Proteinsimple: #DM-001). The electropherograms were checked then the automatic peak detection was manually corrected if it was required.
HeLa cells (2.5×10^6) were treated for 4-24 hours with the compounds solubilized in DMSO. After 4 hours, indicated points were washed and cells were left in full growth media. Compounds were added at 10 μM each. […]

| SMILES | BRD4 degradation, with VHL ligand 8305 (Western blot) (BRD4 [1]) | Caspase 3/7 activation, co-dosed with CRBN ligand 8047 (caspase 3/7) | Degradation of BRD4 in combination with CRBN ligand [drawing 371] (BRD4 [2]; second drawing (8047)) | Degradation of BRD4 in combination with CRBN ligand [drawing 372] (BRD4 [2]; third drawing (8066)) | BRD4 degradation, BRD ligand with pomalidomide (no 8047) (BRD4 [3]; 10 μM) | BRD4 degradation, co-treatment with CRBN ligand 8047 (BRD4 [3]; 1:1 with 8047, 10 μM each, Western blot) | BRD4 degradation, co-dosing with CRBN ligand 8047 (WES) (BRD4 [4]; 10 μM each, 4-24 h with washout after 4 h, or 100 nM-10 μM) | Concentration from which BRD4 protein expression decreases, with 8047 (WES) (BRD4 [4]; 24 h, tested 100 nM-10 μM each) [nM] |
| --- | --- | --- | --- | --- | --- | --- | --- | --- |
| COc1ccc2c(c1)C(c1ccc(Cl)cc1)=N[C@@H](CC(=O)NCc1ccc(B(O)O)cc1)c1nnc(C)n1-2 [BRD-E9, (4-((2-((4S)-6-(4-chlorophenyl)-8-methoxy-1-methyl-4H-benzo[f][1,2,4]triazolo[4,3-a][1,4]diazepin-4-yl)acetamido)methyl)phenyl)boronic acid] | there is degradation of BRD4 |  |  |  |  |  |  |  |
| CCNC(=O)C[C@@H]1N=C(c2ccc(Sc3cccc(B(O)O)c3)cc2)c2cc(OC)ccc2-n2c(C)nnc21 [BRD-E52, (3-((4-((4S)-4-(2-(ethylamino)-2-oxoethyl)-8-methoxy-1-methyl-4H-benzo[f][1,2,4]triazolo[4,3-a][1,4]diazepin-6-yl)phenyl)thio)phenyl)boronic acid] |  | demonstrates activation of caspase 3/7; also recorded: marked caspase activation | ✓ (A black check mark indicates efficacy of 30% to 70% or higher protein degradation) | ✓ (A black check mark indicates efficacy of 30% to 70% or higher protein degradation) | failed to induce BRD4 degradation | causes degradation of BRD4 | marked BRD4 degradation after 4h with sustained degradation for up to 8h after drugs are washed out | ≥ 300 |
